In patent US20240116985A1, “STAPLED PEPTIDES AND METHODS THEREOF” (priority 2020, published 2024):
Converted amounts (≈) assume the structure as drawn. “And” between values parts separate entries of the source, which are not always exact repeats. Equal values may be shown once. Read-outs that look alike come from different tables or passages of the source.

Legend:
[1] = molecular target: T1, beta-catenin/TCF4 engagement (Homo sapiens, UniProt P35222); assay: Nano-BRET target engagement assay (B-cat-Halo & TCF4-Luc in HEK293 cells); assay type: cell-based; details: for inhibition at 10 µM: HEK293, 10 uM
T1 construct: expressed in transfected cells; host or cells: HEK293
T1 sequence (P35222 1-781): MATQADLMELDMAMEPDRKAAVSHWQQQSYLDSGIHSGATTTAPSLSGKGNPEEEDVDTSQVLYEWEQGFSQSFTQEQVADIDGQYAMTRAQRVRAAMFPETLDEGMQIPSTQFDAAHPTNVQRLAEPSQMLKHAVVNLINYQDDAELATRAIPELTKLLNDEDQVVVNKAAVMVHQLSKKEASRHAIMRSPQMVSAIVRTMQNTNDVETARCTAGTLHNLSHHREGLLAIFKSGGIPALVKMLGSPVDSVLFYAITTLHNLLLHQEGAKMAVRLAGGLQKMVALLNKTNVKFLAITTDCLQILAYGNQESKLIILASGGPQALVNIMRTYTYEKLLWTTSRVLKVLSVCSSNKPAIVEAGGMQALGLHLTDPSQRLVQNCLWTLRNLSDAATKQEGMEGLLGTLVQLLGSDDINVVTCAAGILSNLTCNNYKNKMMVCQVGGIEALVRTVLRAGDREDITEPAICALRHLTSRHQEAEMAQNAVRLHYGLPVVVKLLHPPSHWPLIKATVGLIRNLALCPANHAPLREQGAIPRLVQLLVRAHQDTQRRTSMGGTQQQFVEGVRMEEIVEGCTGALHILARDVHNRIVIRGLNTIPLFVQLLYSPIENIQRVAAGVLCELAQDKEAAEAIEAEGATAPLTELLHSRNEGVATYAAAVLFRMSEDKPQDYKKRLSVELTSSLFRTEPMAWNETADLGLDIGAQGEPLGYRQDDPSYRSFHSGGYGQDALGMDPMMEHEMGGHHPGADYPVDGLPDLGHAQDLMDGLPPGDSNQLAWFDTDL

CHI Log D procedure = assay type: physicochemical; details: pH 7.4, CHI Log D
[2] = molecular target: T2, full-length beta-Catenin (Uniprot ID P35222) (Homo sapiens, UniProt P35222); assay: Fluorescence polarization IC50 (beta-catenin / 5FAM-TCF4 10-53 competition); assay type: binding; details: read-out: beta-Catenin FP IC50
T2 construct: 10 nM full-length beta-Catenin (Uniprot ID P35222)
T2 sequence (P35222 1-781): T1 sequence (P35222 1-781)

Solubility in PBS = assay type: physicochemical; details: Solubility (uM)
Method in brief: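 PBS sample ultracentrifuged; supernatant run on HPLC vs. 50 μM peptide in DMSO standard. Solubility = (PBS peak area / DMSO peak area) × 50 uM.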

in vitro = assay type: cell-based; details: human, HEK293 cells, CTG (CellTiter Glo) Relative to Media
Procedure: (§1) On Day 3, fluorescence was read with Nano-BRET substrates. Remove plates from incubator to allow to reach to RT (30 min). Also equilibrate CTG reagent to Rm Temp. Dilute Nano-BRET substrate 1:100 in Assay media. Add 25 uL of diluted substrate to each well and shake for 30 seconds. Read on ClarioSTAR or GloMAX right away (within 10 min). Donor emission @ 460 nm. Acceptor emission @ 618 nm. Use the same plate to measure cell viability (Cell Titer-Glo-2.0 (CTG) Viability test). After reading BRET signal, add CTG reagent to each well at 1:2 ratio and shake on orbital shaker for 2 min. Incubate at Rm Temp for 10-30 min. Read luminescence on ClarioSTAR or GloMAX. Analysis was performed using Prism. Non-linear regression. Log (inhibitor) vs response—variable slope (four parameters). For CTG data linear values (not logarithmic).

HEK293 cells = assay: in vitro; assay type: cell-based; details: human
Procedure: as §1

[3] = plate row B = 20 uM, integration 0.3 s, reading 1

CC(=O)N1CCC[C@]12CC=CCCCC1(CCCC=CCCCOC(=O)N3CC[C@@](C(=O)N[C@@H](Cc4ccsc4)C(=O)N[C@@H](Cc4csc5ccccc45)C(=O)N[C@@H](CCC(N)=O)C(=O)N[C@H](C)C(N)=O)(C3)NC(=O)[C@H](CC(N)=O)NC(=O)[C@H](Cc3ccccc3)NC(=O)[C@H](C)NC(=O)[C@H](C)NC(=O)[C@H](CC(=O)O)NC(=O)[C@H](CC(=O)O)NC1=O)NC(=O)[C@H](CC(C)(C)C)NC(=O)[C@H](CC(=O)O)NC2=O (stereo partly drawn) [I-822, Ac-PL3-Asp-Npg-B5-Asp-Asp-Ala-Ala-Phe-Asn-PyrS2-3Thi-BztA-Gln-dAla-NH2]
BRET % Inhibition ([1]; 0.625 uM, replicates): −32.1% and −5.3% and 6.3% | BRET % Inhibition ([1]; 1.25 uM, replicates): −6.1% and −18.2% and −25.1% | BRET % Inhibition ([1]; 2.5 uM, replicates): −23.7% and 8.1% and −9.2% | BRET % Inhibition ([1]; 5 uM, replicates): 6.8% and −15.3% and 30.1% | BRET % Inhibition ([1]; 10 uM, replicates): 24.5% and 21.5% | BRET % Inhibition ([1]; 20 uM, replicates): 52.9% and 40.7% and 71.4% | inhibition at 10 µM ([1]; read-out: NanoBRET % inh @ 10 uM): 53% | inhibition at 10 µM ([1]; replicates, read-out: BRET % Inhibition): 35.7% | BRET Acceptor 600 LP raw reading [1, 3]: 450 and 280 | BRET Donor 450 BP raw reading [1, 3]: 59340 and 52650 and 45840 | BRET Acceptor 600 LP raw reading ([1]; plate row C = 10 uM): 490 and 470 | BRET Donor 450 BP raw reading ([1]; plate row C = 10 uM): 54740 and 47760 and 46640 | BRET Acceptor 600 LP raw reading ([1]; plate row D = 5 uM): 630 and 600 and 430 | BRET Donor 450 BP raw reading ([1]; plate row D = 5 uM): 56000 and 46130 and 45780 | BRET Donor 450 BP raw reading ([1]; plate row E = 2.5 uM): 54130 and 32300 and 33550 | BRET Acceptor 600 LP raw reading ([1]; plate row F = 1.25 uM (plate map)): 470 and 380 and 260 | IC50 ([1]; read-out: NanoBRET Abs IC50): 6.3 µM | IC50 ([1]; read-out: NanoBRET IC50): 7.7 µM | chromatographic logD (CHI Log D procedure): 2.03 | IC50 [2]: 0.006 µM | Solubility (Solubility in PBS): 46 µM (≈ 91.5 µg/mL) | viability at 0.625 µM (in vitro): 100% | viability at 1.25 µM (in vitro): 94% | viability at 2.5 µM (in vitro): 99% | viability at 5 µM (in vitro): 94% | viability at 10 µM (in vitro): 90% | viability at 20 µM (in vitro): 82% | CTG (CellTiter Glo) Relative to Media (HEK293 cells; 1.25 µM): 98 | CTG (CellTiter Glo) Relative to Media (HEK293 cells; 2.5 µM): 98 | CTG (CellTiter Glo) Relative to Media (HEK293 cells; 5 µM): 95 | CTG (CellTiter Glo) Relative to Media (HEK293 cells; 10 µM): 92
